Each block holds one molecule with its values, some of them ahead of it. Non-standard residues stand in square brackets, D forms with d. Residues, ends and D or L forms follow the SMILES beside them. No end group written: not given here. pY = N[C@@H](Cc1ccc(OP(=O)(O)O)cc1)C(=O)O
Tests used:
talin F3 = target: T1, talin F3 (Mus musculus, UniProt P26039); test: 1H-15N HSQC NMR titration of talin F3 with peptides; type: binding; settings: for perturbation of contact residues in the MP region: mutant chimeric peptides added to wild-type talin F3, MD site binding unchanged
T1 construct: labeled talin F3 domain was expressed and purified as described previously (de Pereda et al., 2005); made in house
Description: (§1) Talin F3 L325R and Q381V mutants were titrated with the original β3/PIPKIγ chimera, while the effect of peptide mutations (F727A and F730A) was assessed using wild-type talin F3.
We set out to obtain a structural explanation for the unusual ability of the talin PTB domain to activate integrins. An initial exploration of the interactions was carried out by adding various tail-derived β3-integrin peptides to the F3 sub-domain of talin, while monitoring the chemical shift perturbations in ^1H-^15N HSQC NMR spectra. The peptide sequences and the nomenclature used are set out in FIG. 1A. The MP peptide corresponds to the N-terminal region of the cytoplasmic β-tail. A peptide comprised of the β-tail region previously visualized in the crystal structure (Garcia-Alvarez et al., 2003), is denoted MD; this peptide primarily causes chemical shift perturbations in strand S5 (de Pereda et al., 2005).
(§2) ^1H-^15N-HSQC titrations were performed as previously described (de Pereda et al., 2005). Weighted shifts (Δδ(HN,N)) were calculated using the equation: Δδ(HN,N)=((ΔδHNWHN)^2+(ΔδNWN)^2)^1/2, where WHN and WN are weighting factors for the HN and N shifts respectively (WHN=1, WN=0.154) (Ayed et al., 2001) and Δδ=δbound−δfree. Talin F3 domains in complex with slow-exchanging peptides, as well as mutant F3 domains, were assigned by correlation to the wild-type talin F3 assignments (de Pereda et al., 2005) and confirmed using 3D gradient-enhanced [^1H-^15N]-NOESY-HSQC (τm=100 ms) spectra alone, or in combination with [^1H-^15N]-TOCSY-HSQC (τm=70 ms) spectra. ^13CO, ^13Cα and ^13Cβ shifts were obtained using a series of 2D ^1H-^15N-^13C experiments (Bersch et al., 2003). Bound peptide shifts were obtained using U—^15N,^2H F3 and unlabeled chimeric peptide (1.3:1). Both bound and unbound chimeric peptide shifts were assigned using 2D NOESY, TOCSY and COSY spectra. DOK PTB domain assignments were obtained previously (unpublished).

[1] = Solubility of peptide at the concentrations used for NMR; type: physicochemical
From the text: NMR studies of the interaction with full-length β3 cytoplasmic tail were more challenging. The off-rates of the complex correspond to an ‘intermediate exchange’ regime, with peaks broadening and disappearing rather than changing position. It was, however, possible to define perturbed residues by plotting the percentage decrease in peak height upon addition of the peptide (FIGS. 1D and 8). The perturbed residues are essentially the sum of those affected by the MD peptide and the MP peptide (FIGS. 1 and 8). The β3 tail/talin F3 interactions can thus be considered in two parts, one corresponding to the previously defined interaction at the MD-site, the other corresponding to the MP-site. […] This, together with exchange broadening of lines, made the β3 tail an unsuitable ligand for studying the structure of the talin-integrin complex by NMR at atomic resolution.

β3/PIPKIγ chimera = test: 1H-15N HSQC NMR titration of talin F3 mutants with chimeric peptide; settings: talin F3 mutants titrated with the original β3/PIPKIγ chimera; MD site binding unchanged
Description: as §1
Mutations to the contact residues in talin F3 (L325R, S365D, S379R, or Q381V) were also made to see if they disrupted the F3/MP interaction.
as §2

Talin F3 W359A = target: T2, Talin F3 W359A (Mus musculus, UniProt P26039, W359A); test: Isothermal titration calorimetry, chimeric peptide binding to talin F3 mutant; settings: ITC, relative to wild type talin F3
T2 construct: injected into the cell containing wildtype or mutant talin F3 domain; made in house
Description: Peptide concentrations were typically at 150 to 300 μM while protein concentrations ranged from 25 to 50 μM. For the W359A mutant, the protein concentration was 50 μM and the peptide concentration was 1 mM. Prior to ITC titrations, the peptides and proteins were in buffer consisting of 200 mM Tris, 300 mM NaCl, pH 7.5. All experiments were conducted at 23 degrees Celsius. […] The bottom panel is the binding curve, calculated using the software program Origin.
Thermodynamic parameters for the binding of WT and mutant talin F3 to the β3 chimeric peptides were measured using isothermal titration calorimetry (Table 2, FIG. 12). In general, mutations that disrupt the MP site, either in the β-tail or talin F3, have relatively little effect on the Kd values (Table 2). This probably arises because of a balance between enthalpy gain and entropy loss, consistent with stabilization of the MP helix on talin binding in the wild-type but not mutant structures. In sharp contrast, the talin (W359A) mutant, which inhibits binding of the MD-site of the β3 tail, reduced the affinity ˜1000 fold, similar to the effect of mutations in the NPxY region of the integrin tail, which abrogate MD binding (Ulmer et al., 2003).
Isothermal titration calorimetry (ITC) was performed on a VP-ITC calorimeter (Microcal, Northampton, Mass.). […] Experimental data were analyzed using Microcal Origin software.

T1 sequence (P26039 309-405 limits assumed): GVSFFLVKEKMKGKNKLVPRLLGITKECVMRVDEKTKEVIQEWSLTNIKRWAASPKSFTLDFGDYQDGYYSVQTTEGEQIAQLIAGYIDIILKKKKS
Sequence of β3/PIPKIγ chimera (as listed by the source, change not shown): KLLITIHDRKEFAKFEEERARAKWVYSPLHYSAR

Molecule: CC[C@H](C)[C@H](NC(=O)[C@H](CC(C)C)NC(=O)[C@H](CC(C)C)NC(=O)[C@H](CCCCN)NC(=O)[C@@H](N)CCCCN)C(=O)N[C@H](C(=O)N[C@H](C(=O)N[C@@H](Cc1c[nH]cn1)C(=O)N[C@@H](CC(=O)O)C(=O)N[C@@H](CCCNC(=N)N)C(=O)N[C@@H](CCCCN)C(=O)N[C@@H](CCC(=O)O)C(=O)N[C@@H](Cc1ccccc1)C(=O)N[C@@H](C)C(=O)N[C@@H](CCCCN)C(=O)N[C@@H](Cc1ccccc1)C(=O)N[C@@H](CCC(=O)O)C(=O)N[C@@H](CCC(=O)O)C(=O)N[C@@H](CCC(=O)O)C(=O)N[C@@H](CCCNC(=N)N)C(=O)N[C@@H](C)C(=O)N[C@@H](CCCNC(=N)N)C(=O)N[C@@H](C)C(=O)N[C@@H](CCCCN)C(=O)N[C@@H](Cc1c[nH]c2ccccc12)C(=O)N[C@H](C(=O)N[C@@H](Cc1ccc(OP(=O)(O)O)cc1)C(=O)N[C@@H](CO)C(=O)N1CCC[C@H]1C(=O)N[C@@H](CC(C)C)C(=O)N[C@@H](Cc1c[nH]cn1)C(=O)N[C@@H](Cc1ccc(O)cc1)C(=O)N[C@@H](CO)C(=O)N[C@@H](C)C(=O)N[C@@H](CCCNC(=N)N)C(=O)O)C(C)C)[C@@H](C)CC)[C@@H](C)O [β3 chimera] (H-KKLLITIHDRKEFAKFEEERARAKWV[pY]SPLHYSAR-OH; N-terminus and C-terminus assumed)
- binding to talin (NMR) (talin F3; 25° C.): bind to talin and form a tight, highly soluble 1:1 complex

B1: F3-Q381V: talin F3 domain mutant Q381V (protein)
chain: GVSFFLVKEKMKGKNKLVPRLLGITKECVMRVDEKTKEVIQEWSLTNIKRWAASPKSFTLDFGDYQDGYYSVVTTEGEQIAQLIAGYIDIILKKKKS
- perturbation of contact residues in the MP region (β3/PIPKIγ chimera): markedly reduced

B3: F3-L325R: talin F3 domain mutant L325R (protein)
chain: GVSFFLVKEKMKGKNKRVPRLLGITKECVMRVDEKTKEVIQEWSLTNIKRWAASPKSFTLDFGDYQDGYYSVQTTEGEQIAQLIAGYIDIILKKKKS
- perturbation of contact residues in the MP region (β3/PIPKIγ chimera): undetectable

Continued, values first:

- perturbation of contact residues in the MP region (talin F3): markedly reduced
Molecule: CC[C@H](C)[C@H](NC(=O)[C@H](CC(C)C)NC(=O)[C@H](CC(C)C)NC(=O)[C@H](CCCCN)NC(=O)[C@@H](N)CCCCN)C(=O)N[C@H](C(=O)N[C@H](C(=O)N[C@@H](Cc1c[nH]cn1)C(=O)N[C@@H](CC(=O)O)C(=O)N[C@@H](CCCNC(=N)N)C(=O)N[C@@H](CCCCN)C(=O)N[C@@H](CCC(=O)O)C(=O)N[C@@H](C)C(=O)N[C@@H](C)C(=O)N[C@@H](CCCCN)C(=O)N[C@@H](Cc1ccccc1)C(=O)N[C@@H](CCC(=O)O)C(=O)N[C@@H](CCC(=O)O)C(=O)N[C@@H](CCC(=O)O)C(=O)N[C@@H](CCCNC(=N)N)C(=O)N[C@@H](C)C(=O)N[C@@H](CCCNC(=N)N)C(=O)N[C@@H](C)C(=O)N[C@@H](CCCCN)C(=O)N[C@@H](Cc1c[nH]c2ccccc12)C(=O)N[C@H](C(=O)N[C@@H](Cc1ccc(OP(=O)(O)O)cc1)C(=O)N[C@@H](CO)C(=O)N1CCC[C@H]1C(=O)N[C@@H](CC(C)C)C(=O)N[C@@H](Cc1c[nH]cn1)C(=O)N[C@@H](Cc1ccc(O)cc1)C(=O)N[C@@H](CO)C(=O)N[C@@H](C)C(=O)N[C@@H](CCCNC(=N)N)C(=O)O)C(C)C)[C@@H](C)CC)[C@@H](C)O [β3 chimera F727A] (H-KKLLITIHDRKEAAKFEEERARAKWV[pY]SPLHYSAR-OH; N-terminus and C-terminus assumed)

- perturbation of contact residues in the MP region (talin F3): undetectable
Molecule: CC[C@H](C)[C@H](NC(=O)[C@H](CC(C)C)NC(=O)[C@H](CC(C)C)NC(=O)[C@H](CCCCN)NC(=O)[C@@H](N)CCCCN)C(=O)N[C@H](C(=O)N[C@H](C(=O)N[C@@H](Cc1c[nH]cn1)C(=O)N[C@@H](CC(=O)O)C(=O)N[C@@H](CCCNC(=N)N)C(=O)N[C@@H](CCCCN)C(=O)N[C@@H](CCC(=O)O)C(=O)N[C@@H](Cc1ccccc1)C(=O)N[C@@H](C)C(=O)N[C@@H](CCCCN)C(=O)N[C@@H](C)C(=O)N[C@@H](CCC(=O)O)C(=O)N[C@@H](CCC(=O)O)C(=O)N[C@@H](CCC(=O)O)C(=O)N[C@@H](CCCNC(=N)N)C(=O)N[C@@H](C)C(=O)N[C@@H](CCCNC(=N)N)C(=O)N[C@@H](C)C(=O)N[C@@H](CCCCN)C(=O)N[C@@H](Cc1c[nH]c2ccccc12)C(=O)N[C@H](C(=O)N[C@@H](Cc1ccc(OP(=O)(O)O)cc1)C(=O)N[C@@H](CO)C(=O)N1CCC[C@H]1C(=O)N[C@@H](CC(C)C)C(=O)N[C@@H](Cc1c[nH]cn1)C(=O)N[C@@H](Cc1ccc(O)cc1)C(=O)N[C@@H](CO)C(=O)N[C@@H](C)C(=O)N[C@@H](CCCNC(=N)N)C(=O)O)C(C)C)[C@@H](C)CC)[C@@H](C)O [β3 chimera F730A] (H-KKLLITIHDRKEFAKAEEERARAKWV[pY]SPLHYSAR-OH; N-terminus and C-terminus assumed)

- solubility [1]: limited solubility
Molecule: KLLITIHDRKEFAKFEEERARAKWDTANNPLYKEATSTFTNITYRGT [full-length β3 tail]

- reduction of affinity for the β3 chimeric peptide (Talin F3 W359A): ~1000 fold
B2: talin (W359A): talin F3 domain mutant W359A, inhibits binding of the MD-site of the β3 tail (protein)
chain: GVSFFLVKEKMKGKNKLVPRLLGITKECVMRVDEKTKEVIQEWSLTNIKRAAASPKSFTLDFGDYQDGYYSVQTTEGEQIAQLIAGYIDIILKKKKS

From patent publication US8530621B2, “Combined preparation of a thiazide diuretic and a loop diuretic” (The Regents of the University of California, priority 2007, dated 2013)
